SMILES strings stand for the structures.

Consider 2 compounds from article PMC3639963, “A New Class of Small Molecule Inhibitor of BMP Signaling” (PLoS ONE, 2013).

Common to all, as to experiment: Nanosyn kinase profiling
Common to all, as to assay type: biochemical
Conditions in all cases: read-out: Percentage inhibition; for inhibition at 0.1 µM: 0.1 µM inhibitor; for inhibition at 1 µM: 1 µM inhibitor

One assay has as its target T1, PRKD3 (Homo sapiens, UniProt O94806).
T1 construct: purchased Nanosyn (enzymatic panel); SGC in-house recombinant human kinases (DSF panel); Invitrogen (ALK1-6)
T1 sequence (O94806 1-890): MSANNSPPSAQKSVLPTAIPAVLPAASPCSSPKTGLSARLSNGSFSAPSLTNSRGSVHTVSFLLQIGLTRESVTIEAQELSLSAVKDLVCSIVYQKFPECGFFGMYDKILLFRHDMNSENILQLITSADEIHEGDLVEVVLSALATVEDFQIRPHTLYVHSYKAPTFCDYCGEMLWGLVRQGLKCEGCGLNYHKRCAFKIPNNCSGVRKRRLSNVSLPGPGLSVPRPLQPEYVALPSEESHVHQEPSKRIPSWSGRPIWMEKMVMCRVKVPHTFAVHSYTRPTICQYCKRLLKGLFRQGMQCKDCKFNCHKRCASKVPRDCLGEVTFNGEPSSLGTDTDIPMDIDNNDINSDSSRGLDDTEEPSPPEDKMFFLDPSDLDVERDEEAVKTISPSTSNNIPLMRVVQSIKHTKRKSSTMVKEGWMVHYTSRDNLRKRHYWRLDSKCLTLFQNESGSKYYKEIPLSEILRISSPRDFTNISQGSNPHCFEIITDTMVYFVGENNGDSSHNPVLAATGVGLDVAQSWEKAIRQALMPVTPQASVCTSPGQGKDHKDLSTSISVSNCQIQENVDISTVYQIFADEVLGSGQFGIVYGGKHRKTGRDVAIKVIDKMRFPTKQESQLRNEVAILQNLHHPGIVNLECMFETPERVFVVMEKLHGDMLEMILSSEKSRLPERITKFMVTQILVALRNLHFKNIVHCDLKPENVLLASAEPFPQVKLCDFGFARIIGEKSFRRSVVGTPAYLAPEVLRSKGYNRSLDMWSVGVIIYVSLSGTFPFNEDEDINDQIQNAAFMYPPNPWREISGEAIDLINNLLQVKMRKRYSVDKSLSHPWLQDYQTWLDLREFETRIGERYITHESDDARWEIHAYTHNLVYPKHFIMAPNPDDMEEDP
A digest of the protocol: (§1)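 Percent inhibition of each kinase was measured with the inhibitor at 0.1 µM and at 1 µM, as part of a 200-kinase human selectivity panel.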

In the next assay the target is T2, KIT (Homo sapiens, UniProt P10721).
T2 construct: purchased Nanosyn (enzymatic panel); SGC in-house recombinant human kinases (DSF panel); Invitrogen (ALK1-6)
T2 sequence (P10721 26-976): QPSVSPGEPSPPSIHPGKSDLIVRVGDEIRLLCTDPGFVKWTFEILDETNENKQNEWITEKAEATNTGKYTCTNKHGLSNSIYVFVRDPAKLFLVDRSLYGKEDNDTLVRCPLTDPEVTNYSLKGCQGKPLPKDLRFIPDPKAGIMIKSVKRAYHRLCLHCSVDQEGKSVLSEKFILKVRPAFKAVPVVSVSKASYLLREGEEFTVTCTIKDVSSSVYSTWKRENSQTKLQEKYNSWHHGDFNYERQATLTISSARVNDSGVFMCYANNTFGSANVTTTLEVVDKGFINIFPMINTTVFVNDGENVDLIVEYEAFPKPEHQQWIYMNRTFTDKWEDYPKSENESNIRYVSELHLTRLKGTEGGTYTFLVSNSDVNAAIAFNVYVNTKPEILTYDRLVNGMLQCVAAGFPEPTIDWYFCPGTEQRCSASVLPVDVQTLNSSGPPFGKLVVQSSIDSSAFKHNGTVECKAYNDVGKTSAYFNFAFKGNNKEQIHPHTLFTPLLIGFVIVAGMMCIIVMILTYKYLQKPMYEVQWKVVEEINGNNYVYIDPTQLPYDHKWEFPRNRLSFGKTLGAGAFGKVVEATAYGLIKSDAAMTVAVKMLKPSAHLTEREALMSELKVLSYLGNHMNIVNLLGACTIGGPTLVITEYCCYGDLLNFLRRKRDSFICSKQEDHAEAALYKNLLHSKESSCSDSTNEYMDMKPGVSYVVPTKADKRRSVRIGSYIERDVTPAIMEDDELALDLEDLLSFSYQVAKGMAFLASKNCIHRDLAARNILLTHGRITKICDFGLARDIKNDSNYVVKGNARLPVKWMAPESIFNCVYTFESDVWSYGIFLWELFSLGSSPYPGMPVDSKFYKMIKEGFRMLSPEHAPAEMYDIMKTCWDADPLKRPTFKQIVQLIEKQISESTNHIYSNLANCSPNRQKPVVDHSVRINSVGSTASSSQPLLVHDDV
The gist of the method:
as §1

For the next assay, the target named is T3, LTK (Homo sapiens, UniProt P29376).
T3 construct: purchased Nanosyn (enzymatic panel); SGC in-house recombinant human kinases (DSF panel); Invitrogen (ALK1-6)
T3 sequence (P29376 17-864): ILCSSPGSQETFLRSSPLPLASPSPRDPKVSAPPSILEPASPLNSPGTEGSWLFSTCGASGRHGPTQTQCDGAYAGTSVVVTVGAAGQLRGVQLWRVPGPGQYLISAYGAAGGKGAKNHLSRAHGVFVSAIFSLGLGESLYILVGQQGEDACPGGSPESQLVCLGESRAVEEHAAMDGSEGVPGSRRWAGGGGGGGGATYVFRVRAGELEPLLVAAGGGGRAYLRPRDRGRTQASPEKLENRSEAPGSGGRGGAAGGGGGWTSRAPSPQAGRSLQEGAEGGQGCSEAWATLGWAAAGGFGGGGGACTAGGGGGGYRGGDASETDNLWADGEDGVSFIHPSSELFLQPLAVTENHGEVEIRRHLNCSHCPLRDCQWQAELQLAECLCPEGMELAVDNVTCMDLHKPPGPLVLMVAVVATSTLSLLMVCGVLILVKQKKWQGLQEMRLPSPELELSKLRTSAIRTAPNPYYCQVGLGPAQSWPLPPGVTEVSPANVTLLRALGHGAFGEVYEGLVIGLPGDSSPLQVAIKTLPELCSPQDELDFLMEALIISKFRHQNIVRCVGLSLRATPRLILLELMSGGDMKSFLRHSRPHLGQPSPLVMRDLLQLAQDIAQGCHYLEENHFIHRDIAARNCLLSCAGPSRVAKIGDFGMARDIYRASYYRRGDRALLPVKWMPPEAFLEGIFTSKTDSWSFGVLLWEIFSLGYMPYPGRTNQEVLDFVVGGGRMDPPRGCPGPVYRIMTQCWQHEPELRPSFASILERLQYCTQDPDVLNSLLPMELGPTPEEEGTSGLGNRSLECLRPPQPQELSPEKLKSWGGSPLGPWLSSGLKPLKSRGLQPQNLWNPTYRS
The gist of the method: as §1

The next assay addresses T4, LOK (Homo sapiens, UniProt O94804).
T4 construct: purchased Nanosyn (enzymatic panel); SGC in-house recombinant human kinases (DSF panel); Invitrogen (ALK1-6)
A digest of the protocol:
as §1

A further assay deals with T5, BMX (Homo sapiens, UniProt P51813).
T5 construct: purchased Nanosyn (enzymatic panel); SGC in-house recombinant human kinases (DSF panel); Invitrogen (ALK1-6)
T5 sequence (P51813 1-675): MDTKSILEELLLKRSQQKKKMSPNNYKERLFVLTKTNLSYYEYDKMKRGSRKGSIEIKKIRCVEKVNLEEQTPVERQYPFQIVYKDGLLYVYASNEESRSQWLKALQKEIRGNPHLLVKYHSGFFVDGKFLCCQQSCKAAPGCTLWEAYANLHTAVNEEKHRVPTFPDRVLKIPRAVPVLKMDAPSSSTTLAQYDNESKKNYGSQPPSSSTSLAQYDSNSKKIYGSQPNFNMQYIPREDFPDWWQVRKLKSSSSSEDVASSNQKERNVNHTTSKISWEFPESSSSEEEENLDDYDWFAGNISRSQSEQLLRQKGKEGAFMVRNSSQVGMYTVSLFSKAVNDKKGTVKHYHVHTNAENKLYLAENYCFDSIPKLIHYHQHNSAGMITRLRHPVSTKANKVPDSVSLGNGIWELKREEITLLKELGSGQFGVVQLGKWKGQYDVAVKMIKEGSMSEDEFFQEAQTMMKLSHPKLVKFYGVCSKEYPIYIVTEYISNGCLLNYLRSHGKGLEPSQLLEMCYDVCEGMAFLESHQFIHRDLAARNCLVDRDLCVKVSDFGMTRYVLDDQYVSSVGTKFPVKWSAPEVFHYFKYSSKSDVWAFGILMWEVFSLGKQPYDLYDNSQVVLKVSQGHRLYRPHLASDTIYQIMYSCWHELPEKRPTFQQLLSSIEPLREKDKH
The gist of the method: as §1

The next assay addresses T6, DAPK1 (Homo sapiens, UniProt P53355).
T6 construct: purchased Nanosyn (enzymatic panel); SGC in-house recombinant human kinases (DSF panel); Invitrogen (ALK1-6)
The gist of the method:
as §1

Another assay concerns the target T7, ARK5 (Homo sapiens, UniProt O60285).
T7 construct: purchased Nanosyn (enzymatic panel); SGC in-house recombinant human kinases (DSF panel); Invitrogen (ALK1-6)
T7 sequence (O60285 1-661): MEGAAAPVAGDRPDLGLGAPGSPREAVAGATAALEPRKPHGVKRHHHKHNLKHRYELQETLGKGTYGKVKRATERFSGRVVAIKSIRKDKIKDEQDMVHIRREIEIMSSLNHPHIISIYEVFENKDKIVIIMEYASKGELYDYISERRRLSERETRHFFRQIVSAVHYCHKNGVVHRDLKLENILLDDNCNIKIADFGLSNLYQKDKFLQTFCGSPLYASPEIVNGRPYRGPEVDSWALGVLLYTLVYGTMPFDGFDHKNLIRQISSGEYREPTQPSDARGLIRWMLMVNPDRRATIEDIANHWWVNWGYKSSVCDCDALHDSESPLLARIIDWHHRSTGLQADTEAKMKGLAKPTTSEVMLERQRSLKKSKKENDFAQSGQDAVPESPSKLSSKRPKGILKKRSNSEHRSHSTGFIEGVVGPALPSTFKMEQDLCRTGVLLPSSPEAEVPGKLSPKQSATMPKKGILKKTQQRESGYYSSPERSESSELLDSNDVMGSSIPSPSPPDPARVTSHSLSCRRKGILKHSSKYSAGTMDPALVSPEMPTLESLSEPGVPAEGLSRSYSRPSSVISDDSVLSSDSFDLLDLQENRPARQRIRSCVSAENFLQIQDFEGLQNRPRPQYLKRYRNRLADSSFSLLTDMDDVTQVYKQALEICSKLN
The gist of the method: as §1

The target in another assay is T8, DYRK1A (Homo sapiens, UniProt Q13627).
T8 construct: purchased Nanosyn (enzymatic panel); SGC in-house recombinant human kinases (DSF panel); Invitrogen (ALK1-6)
A digest of the protocol: as §1

The target of another assay is T9, MARK1 (Homo sapiens, UniProt Q9P0L2).
T9 construct: purchased Nanosyn (enzymatic panel); SGC in-house recombinant human kinases (DSF panel); Invitrogen (ALK1-6)
T9 sequence (Q9P0L2 whole entry): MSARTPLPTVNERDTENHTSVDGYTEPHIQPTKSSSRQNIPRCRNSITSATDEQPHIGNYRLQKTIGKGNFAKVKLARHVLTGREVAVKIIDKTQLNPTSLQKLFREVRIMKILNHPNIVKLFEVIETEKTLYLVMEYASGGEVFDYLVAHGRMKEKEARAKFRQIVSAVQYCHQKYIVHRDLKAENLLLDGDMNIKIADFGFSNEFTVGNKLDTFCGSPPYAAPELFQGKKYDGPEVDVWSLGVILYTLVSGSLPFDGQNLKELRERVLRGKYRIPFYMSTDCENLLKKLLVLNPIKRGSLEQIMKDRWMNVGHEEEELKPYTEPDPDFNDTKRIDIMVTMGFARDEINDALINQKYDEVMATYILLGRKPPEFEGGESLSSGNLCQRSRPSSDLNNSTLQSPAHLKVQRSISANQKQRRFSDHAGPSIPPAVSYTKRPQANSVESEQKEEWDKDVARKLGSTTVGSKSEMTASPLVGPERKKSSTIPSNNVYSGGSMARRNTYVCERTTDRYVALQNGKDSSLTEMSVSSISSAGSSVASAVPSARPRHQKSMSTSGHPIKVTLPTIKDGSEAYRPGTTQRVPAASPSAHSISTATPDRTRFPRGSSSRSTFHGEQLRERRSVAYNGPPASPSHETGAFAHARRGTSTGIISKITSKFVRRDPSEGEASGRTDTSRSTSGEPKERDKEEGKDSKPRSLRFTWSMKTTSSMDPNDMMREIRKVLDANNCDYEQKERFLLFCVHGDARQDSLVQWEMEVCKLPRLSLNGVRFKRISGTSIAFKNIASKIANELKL
The gist of the method:
as §1

T6 sequence (P53355 whole entry): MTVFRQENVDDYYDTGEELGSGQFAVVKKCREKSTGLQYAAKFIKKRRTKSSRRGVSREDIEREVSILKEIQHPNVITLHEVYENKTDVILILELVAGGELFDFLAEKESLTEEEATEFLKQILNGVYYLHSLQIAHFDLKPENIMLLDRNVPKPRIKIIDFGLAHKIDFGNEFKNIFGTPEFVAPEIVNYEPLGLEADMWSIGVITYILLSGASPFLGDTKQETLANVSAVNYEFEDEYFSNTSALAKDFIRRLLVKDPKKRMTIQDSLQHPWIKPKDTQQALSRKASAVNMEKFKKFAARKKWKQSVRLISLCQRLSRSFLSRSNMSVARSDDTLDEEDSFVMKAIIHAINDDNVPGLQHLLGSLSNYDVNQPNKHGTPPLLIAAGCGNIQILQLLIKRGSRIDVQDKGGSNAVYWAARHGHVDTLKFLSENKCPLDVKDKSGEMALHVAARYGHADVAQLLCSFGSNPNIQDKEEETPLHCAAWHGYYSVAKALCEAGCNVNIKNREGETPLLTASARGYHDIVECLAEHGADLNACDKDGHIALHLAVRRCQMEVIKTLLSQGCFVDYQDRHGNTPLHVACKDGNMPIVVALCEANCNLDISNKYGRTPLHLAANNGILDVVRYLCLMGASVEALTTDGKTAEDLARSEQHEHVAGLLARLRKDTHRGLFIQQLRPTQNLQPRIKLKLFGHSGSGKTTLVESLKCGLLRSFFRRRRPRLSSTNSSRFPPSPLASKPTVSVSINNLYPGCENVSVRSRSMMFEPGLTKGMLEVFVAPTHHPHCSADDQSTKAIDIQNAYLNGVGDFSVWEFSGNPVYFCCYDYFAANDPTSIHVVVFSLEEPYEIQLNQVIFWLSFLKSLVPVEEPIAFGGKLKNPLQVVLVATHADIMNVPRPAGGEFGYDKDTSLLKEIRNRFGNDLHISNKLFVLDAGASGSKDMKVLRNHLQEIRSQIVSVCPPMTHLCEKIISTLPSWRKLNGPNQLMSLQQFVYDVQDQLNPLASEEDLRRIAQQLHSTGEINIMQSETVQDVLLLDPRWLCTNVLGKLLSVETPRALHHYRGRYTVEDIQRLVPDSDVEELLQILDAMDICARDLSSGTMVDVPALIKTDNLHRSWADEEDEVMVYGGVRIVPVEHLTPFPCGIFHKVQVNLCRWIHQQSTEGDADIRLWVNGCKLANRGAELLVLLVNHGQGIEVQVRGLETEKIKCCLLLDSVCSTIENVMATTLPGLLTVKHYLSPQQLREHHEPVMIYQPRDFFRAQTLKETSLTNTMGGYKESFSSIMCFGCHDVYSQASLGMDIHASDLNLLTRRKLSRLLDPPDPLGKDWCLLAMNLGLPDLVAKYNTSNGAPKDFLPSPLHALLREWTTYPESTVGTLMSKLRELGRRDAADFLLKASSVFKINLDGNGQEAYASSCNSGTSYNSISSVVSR
T4 sequence (O94804 whole entry): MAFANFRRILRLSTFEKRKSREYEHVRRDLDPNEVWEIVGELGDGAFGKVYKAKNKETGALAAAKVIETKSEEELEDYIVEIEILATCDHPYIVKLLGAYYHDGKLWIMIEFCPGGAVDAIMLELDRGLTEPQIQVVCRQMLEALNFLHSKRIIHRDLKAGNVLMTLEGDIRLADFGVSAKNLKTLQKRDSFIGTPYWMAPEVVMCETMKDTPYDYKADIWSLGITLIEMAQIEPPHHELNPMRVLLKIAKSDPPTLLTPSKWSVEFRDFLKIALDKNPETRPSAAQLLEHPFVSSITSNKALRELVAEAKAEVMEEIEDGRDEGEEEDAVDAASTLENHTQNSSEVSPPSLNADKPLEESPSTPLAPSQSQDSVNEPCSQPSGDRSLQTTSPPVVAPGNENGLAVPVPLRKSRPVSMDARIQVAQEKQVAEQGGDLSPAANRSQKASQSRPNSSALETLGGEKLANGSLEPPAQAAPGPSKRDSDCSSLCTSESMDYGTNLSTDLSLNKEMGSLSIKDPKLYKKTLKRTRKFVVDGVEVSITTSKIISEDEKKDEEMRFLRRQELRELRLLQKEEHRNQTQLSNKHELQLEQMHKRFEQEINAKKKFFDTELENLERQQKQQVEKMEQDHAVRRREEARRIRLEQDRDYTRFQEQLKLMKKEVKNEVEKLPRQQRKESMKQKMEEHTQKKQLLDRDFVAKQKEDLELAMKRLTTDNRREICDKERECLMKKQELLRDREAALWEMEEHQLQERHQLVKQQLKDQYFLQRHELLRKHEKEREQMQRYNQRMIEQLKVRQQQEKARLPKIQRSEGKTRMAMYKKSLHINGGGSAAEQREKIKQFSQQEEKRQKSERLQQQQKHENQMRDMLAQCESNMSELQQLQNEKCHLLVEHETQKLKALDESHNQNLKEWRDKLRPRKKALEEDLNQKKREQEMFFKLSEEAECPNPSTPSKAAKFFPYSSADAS

On to `c1ccc2c(-c3cnn4cc(-c5ccc(N6CCNCC6)cc5)cnc34)ccnc2c1` [LDN-193189], for which the inhibition at 0.1 µM was determined as 3.2% at PRKD3; 7% at KIT; 3.6% at LTK; 8.3% at LOK; 0.2% at BMX; 1.5% on DAPK1. The inhibition at 0.1 µM at ARK5 was 16%; at DYRK1A, 10%; at MARK1, 13%. Further, the inhibition at 1 µM is 13% at PRKD3; 41% at KIT; 4% at LTK; 38% on LOK; 4% at BMX; 0.4% on DAPK1. Also, the inhibition at 1 µM on ARK5 stood at 56%; on DYRK1A, 53%; on MARK1 it was 62%.
As for `COc1cc(-c2cc(-c3cccc(O)c3)cnc2N)cc(OC)c1OC` [K02288, 3-[6-amino-5-(3,4,5-trimethoxy-phenyl)-pyridin-3-yl]-phenol], the inhibition at 0.1 µM is -1% on PRKD3; 4% at KIT; 3.6% at LTK; 3.5% at LOK; 0.5% on BMX; -1% at DAPK1. Moreover, the inhibition at 0.1 µM at ARK5 turned out to be 1.1%; on DYRK1A it was 1.9%; on MARK1, 1.3%. The inhibition at 1 µM on PRKD3 is 3.2%; on KIT, 9.2%; at LTK, 31%; on LOK, 25%; on BMX it was 19%; on DAPK1 it was -1%. Moreover, the inhibition at 1 µM at ARK5 was determined as 4.1%; on DYRK1A it was 4.1%; on MARK1 it was 4.5%.
